This note sets out measurements from paper PMC9917443 (eLife, 2023).

Assay [1] has as its system GB1a/2 receptors in HEK293T cells. Description: APP17-TMR binding / displacement at GB1a/2 receptors in HEK293T cells. The conditions noted are these: 10 μM peptide. The procedure:
Transfected HEK293T cells expressing Flag-GB1a and Flag-GB2 were seeded into 96-well microplates (Greiner Bio-One, Kremsmünster, Austria) at 50,000 cells/well. After 18 hr, peptides were mixed with conditioned medium at the following final concentrations: APP17-TMR (1 µM) with either APP17 (10 µM), sc-APP17 (10 µM), or PBS (vehicle); sc-APP17-TMR (1 µM) in PBS was used as a negative control. After removal of medium, peptide mixes were added to the wells and cells incubated in the dark for 1 hr at room temperature. After removal of the peptides, PBS with MgCl2 and CaCl2 (Sigma-Aldrich) was added to the wells. TMR fluorescence was monitored with a Spark microplate reader (Tecan Group, Männerdorf, Switzerland) using a monochromator (Excitation 544 nm, […] bandwidth; detection […], 25 nm bandwidth). TMR fluorescence was determined after subtraction of the sc-APP17-TMR fluorescence measured at HEK293T cells transfected with pCI plasmid.

Assay [2] concerns GBR-activated K^+ currents in cultured hippocampal neurons. As to the kind of experiment: K^+ currents in cultured hippocampal neurons (patch-clamp). The assay is classed as cell-based, mouse. On the procedure:
APP17 signaling through native GBRs may depend on protein-protein interactions that are not preserved in the membrane preparations used for the [^35S]GTPγS binding assay. Therefore, we tested whether APP17 influences GBR-mediated Gβγ signaling to K^+ channels in cultured hippocampal neurons using patch-clamp electrophysiology, which preserves the native environment of receptors ([Schuler et al., 2001]; [Vigot et al., 2006]). […] . Neuronal cultures and HEK293T cells were prepared as described ([Dinamarca et al., 2019]). Coverslips with hippocampal neurons (DIV 12–15) or HEK293T cells were transferred to a chamber containing a low-K^+ bath solution (in mM): 145 NaCl, 4 KCl, 5 HEPES, 5.5 D-glucose, 1 MgCl2, and 1.8 CaCl2 (pH 7.4 adjusted with NaOH). Recordings were performed at room temperature using borosilicate pipettes of 3–5 MΩ resistance tips, filled with K-gluconate-based pipette solution (in mM): 150 K-gluconate, 1.1 EGTA, 10 HEPES, 10 Tris-phosphocreatine, 0.3 NaGTP, and 4 MgATP (pH 7.2 adjusted with KOH). Upon achieving whole-cell access, cells were held in voltage-clamp mode at −70 mV (with no correction for liquid junction potential) and baclofen-induced K^+ currents were induced in a high-K^+ bath solution (in mM): 120 NaCl, 25 KCl, 5 HEPES, 5.5 D-glucose, 1 MgCl2, and 1.8 CaCl2 (pH 7.4 adjusted with NaOH). […] Schaffer collaterals were stimulated at 0.1 Hz with brief current pulses via bipolar Pt/Ir wires. Evoked EPSCs were recorded at –60 mV with a Cs^+-based intracellular solution. Baclofen and peptides were bath applied in standard ACSF at room temperature. We recorded mEPSCs in primary neuronal cultures established from embryonic (E15–17) murine hippocampus at DIV13–16 in the presence of 0.5 μM TTX at room temperature ([Dinamarca et al., 2019]). APP17 (250 nM) and (R)-baclofen (30 μM) were applied via superfusion. Template matching with pClamp 10 software (Molecular Devices) was used to detect individual mEPSCs.

For assay [3], the system named is GB1a/2 receptor-induced Kir3 currents in HEK293T cells. Description: Kir3 K^+ currents in transfected HEK293T cells (patch-clamp). Type of assay: cell-based. A general note: Patch clamp records ionic current or voltage across a cell membrane.
For assay [4], the system named is spontaneous neuronal activity in the auditory cortex. Description: two-photon Ca^2+ imaging of auditory cortex in anesthetized mice. The conditions noted are these: 5 µM perfused over cortex; peptides 60 min, baclofen 15 min.
Assay [5] deals with T1, GB1a/2 receptors (Homo sapiens, UniProt O75899+Q9UBS5). As to the kind of experiment: PKA luminescence assay (R-RLuc-N / C-RLuc-C) of Gαi signaling in HEK293T cells.
T1 sequence (Q9UBS5 15-961 limits assumed): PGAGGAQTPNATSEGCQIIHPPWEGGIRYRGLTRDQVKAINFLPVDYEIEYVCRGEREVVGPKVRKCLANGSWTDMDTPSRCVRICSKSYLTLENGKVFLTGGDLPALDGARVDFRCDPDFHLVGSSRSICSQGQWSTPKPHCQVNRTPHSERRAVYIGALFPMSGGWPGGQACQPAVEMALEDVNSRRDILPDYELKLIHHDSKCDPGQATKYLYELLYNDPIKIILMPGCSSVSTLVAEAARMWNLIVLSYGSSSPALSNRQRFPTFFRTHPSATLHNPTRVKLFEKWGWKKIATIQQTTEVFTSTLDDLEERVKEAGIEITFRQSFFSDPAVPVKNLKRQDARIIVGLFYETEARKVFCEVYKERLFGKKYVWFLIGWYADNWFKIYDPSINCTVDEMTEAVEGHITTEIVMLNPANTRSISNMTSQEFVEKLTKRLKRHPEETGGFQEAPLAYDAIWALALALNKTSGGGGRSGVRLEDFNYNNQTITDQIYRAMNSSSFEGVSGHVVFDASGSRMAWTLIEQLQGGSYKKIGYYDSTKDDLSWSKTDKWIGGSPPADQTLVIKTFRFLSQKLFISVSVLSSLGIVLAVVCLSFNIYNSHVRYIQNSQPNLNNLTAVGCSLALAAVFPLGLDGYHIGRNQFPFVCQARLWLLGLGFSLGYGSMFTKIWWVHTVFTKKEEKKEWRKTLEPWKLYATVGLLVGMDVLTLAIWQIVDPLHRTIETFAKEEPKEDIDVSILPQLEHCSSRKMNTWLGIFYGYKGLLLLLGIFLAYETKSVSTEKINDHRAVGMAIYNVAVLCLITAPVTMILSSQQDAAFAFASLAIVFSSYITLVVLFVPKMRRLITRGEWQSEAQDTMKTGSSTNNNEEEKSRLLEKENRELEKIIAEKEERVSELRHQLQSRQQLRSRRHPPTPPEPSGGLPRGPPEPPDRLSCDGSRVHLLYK
T1 sequence (O75899 42-941 partner): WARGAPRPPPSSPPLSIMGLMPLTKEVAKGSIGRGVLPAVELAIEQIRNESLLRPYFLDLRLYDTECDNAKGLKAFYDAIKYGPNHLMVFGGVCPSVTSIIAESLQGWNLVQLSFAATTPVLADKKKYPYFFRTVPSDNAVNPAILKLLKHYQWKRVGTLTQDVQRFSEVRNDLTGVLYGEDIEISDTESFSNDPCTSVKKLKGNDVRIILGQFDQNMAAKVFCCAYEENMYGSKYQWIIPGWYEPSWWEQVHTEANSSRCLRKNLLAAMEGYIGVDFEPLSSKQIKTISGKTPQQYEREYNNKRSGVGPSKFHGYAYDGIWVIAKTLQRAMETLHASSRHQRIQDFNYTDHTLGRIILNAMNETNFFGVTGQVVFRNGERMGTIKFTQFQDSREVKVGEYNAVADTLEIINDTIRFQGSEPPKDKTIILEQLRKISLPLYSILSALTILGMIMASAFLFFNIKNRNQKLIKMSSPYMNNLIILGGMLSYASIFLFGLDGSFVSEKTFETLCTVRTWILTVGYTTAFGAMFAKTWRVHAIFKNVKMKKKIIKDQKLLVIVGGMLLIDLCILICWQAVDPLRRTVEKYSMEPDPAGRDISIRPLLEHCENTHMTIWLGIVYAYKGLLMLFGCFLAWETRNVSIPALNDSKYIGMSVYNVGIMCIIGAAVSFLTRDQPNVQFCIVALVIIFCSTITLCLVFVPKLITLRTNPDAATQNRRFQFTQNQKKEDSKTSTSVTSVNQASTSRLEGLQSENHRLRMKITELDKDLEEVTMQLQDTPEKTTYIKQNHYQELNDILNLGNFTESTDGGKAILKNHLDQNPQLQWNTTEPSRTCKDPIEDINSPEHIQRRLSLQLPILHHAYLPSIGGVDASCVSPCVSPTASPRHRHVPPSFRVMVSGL
Assay [6] has as its target T1, GB1a/2 receptors. As to the kind of experiment: inter-subunit FRET conformational sensor (HA-GB1a-ACP / Flag-SNAP-GB2) in HEK293T cells. As to conditions: for Fig. 2c value, 10mM GABA / Fig. 2c value, Basal: + Vehicle Basal given as 100; for Fig. 2c value, Basal: Basal (no GABA).
Assay [7] deals with T1, GB1a/2 receptors. Description: Ca^2+ mobilization assay (Calcium 6) in HEK293T cells expressing GB1a/2. Also noted: Flag (N); expressed in transfected cells; host or cells: HEK293T cells stably expressing chimeric Gαqi. Type of assay: cell-based. The conditions noted are these: 1 or 10 μM.
In assay [8] the target is T1, GB1a/2 receptors. As to the kind of experiment: SRE-luciferase accumulation assay (Gαqi/PLC) in HEK293T-Gαqi cells. The conditions noted are these: constitutive and GABA-induced FLuc activity.
Assay [9] concerns the target T1, GB1a/2 receptors. As to the kind of experiment: BRET assay of G protein activation (Gαo-RLuc / Venus-Gγ2) in HEK293T cells. The assay is classed as cell-based. Further details: Flag (N); expressed in transfected cells; host or cells: HEK293T cells stably expressing chimeric Gαqi. The conditions noted are these: GABA or CGP54626, 10 μM. The procedure:
We directly tested whether APP17 influences G protein activation by GBRs in transfected HEK293T cells. […] HEK293T cells were transiently transfected with Flag-GB1a, Flag-GB2, Gαo-RLuc, Gβ2, and Venus-Gγ2 plasmids with or without APP695. In order to ensure APP695 binding to GB1a/2 in trans a pool of HEK293T cells expressing APP695 was mixed with a pool of HEK293T cells expressing Flag-GB1a, Flag-GB2, Gαo-RLuc, Gβ2, and Venus-Gγ2. Transfected cells were seeded into 96-well microplates (Greiner Bio-One) at 100,000 cells/well. After 18 hr, cells were washed and coelenterazine h (5 µM, NanoLight Technologies, Prolume Ltd., Pinetop-Lakeside, AZ, USA) added for 5 min. […] BRET ratios were adjusted by subtracting the ratios obtained when RLuc fusion proteins were expressed alone. Each data point represents a technical quadruplicate.

The subject of another assay is mGlu5 receptors. Description: Ca^2+ mobilization assay (Calcium 6) in HEK293T cells expressing mGlu5. The assay is classed as cell-based. The conditions noted are these: 1 and 10 µM.

For the molecule Ac-DWGADTVSGDGYDAWDD-NH2 [sc-APP17], the “displacement of 1 μM APP17-TMR from GB1a/2 receptors (in words)” value in [1] is on record as “not sc-APP17 displaced 1 μM APP17-TMR from GB1a/2 receptors”. For the same molecule, the “baclofen-induced K^+ currents in presence of peptide (in words)” value in assay [2] (5 µM peptide + 5 µM baclofen) is given as “elicited currents of similar amplitudes as baclofen alone”. Also, in assay [2] (5 µM, -70 mV), the “K^+ currents evoked by compound alone (in words)” value was “did not elicit any currents”. In addition, in [3] (5 µM GABA), the “GABA-induced Kir3 currents in presence of peptide (in words)” value is given as “nor did the peptides alter K^+ currents in the presence of 5 µM GABA”. The “Kir3 K^+ currents evoked by compound alone (in words)” value in assay [3] (transfected HEK293T cells) was “did not trigger K^+ currents”. In assay [4], the “spontaneous Ca^2+ transients (in words)” value is “no significant effect compared to ACSF”. The “GABA-mediated PKA inactivation in presence of peptide (in words)” value at GB1a/2 receptors [5] (10 μM peptide) is reported as “GABA-mediated PKA inactivation was comparable”. Besides, the “effect of peptide alone on luminescence/receptor activity (in words)” value at GB1a/2 receptors [5] (10 μM peptide) is listed as “no agonistic, inverse agonistic, or antagonistic properties”. In addition, the “receptor activity with APP695 in cis (in words)” value on GB1a/2 receptors [5] (peptide, APP695 in cis) is “did not significantly alter GB1/2 receptor activity”. Further, the “Fig. 2c value, 10mM GABA” value on GB1a/2 receptors [6] (1 µM peptide with 10mM GABA, replicate 2) was determined as 29.41; on GB1a/2 receptors [6] (1 µM peptide with 10mM GABA, replicate 3), 73.18; at GB1a/2 receptors [6] (1 µM peptide with 10mM GABA, replicate 4) it was 69.99; on GB1a/2 receptors [6] (1 µM peptide with 10mM GABA, replicate 5) it was 51.73; at GB1a/2 receptors [6] (1 µM peptide with 10mM GABA, replicate 6) it was 86.53; on GB1a/2 receptors [6] (10 µM peptide with 10mM GABA, replicate 1), 53.02. For the same molecule, the “Fig. 2c value, 10mM GABA” value at GB1a/2 receptors [6] (10 µM peptide with 10mM GABA, replicate 2) is reported as 53.95; at GB1a/2 receptors [6] (10 µM peptide with 10mM GABA, replicate 3) it was 60.06; at GB1a/2 receptors [6] (10 µM peptide with 10mM GABA, replicate 4), 60.44; on GB1a/2 receptors [6] (10 µM peptide with 10mM GABA, replicate 6) it was 23.67. The “Fig. 2c value, Basal” value is listed as 88.34 on GB1a/2 receptors [6] (1 µM peptide, replicate 1); 87.73 at GB1a/2 receptors [6] (1 µM peptide, replicate 2); 107.5 on GB1a/2 receptors [6] (1 µM peptide, replicate 3); 102.7 at GB1a/2 receptors [6] (1 µM peptide, replicate 4); 121 at GB1a/2 receptors [6] (1 µM peptide, replicate 5); 65.57 at GB1a/2 receptors [6] (1 µM peptide, replicate 6). In addition, the “Fig. 2c value, Basal” value is reported as 90.75 on GB1a/2 receptors [6] (10 µM peptide, replicate 1); 69.76 at GB1a/2 receptors [6] (10 µM peptide, replicate 2); 95.95 on GB1a/2 receptors [6] (10 µM peptide, replicate 3); 91.68 at GB1a/2 receptors [6] (10 µM peptide, replicate 4); 104.2 on GB1a/2 receptors [6] (10 µM peptide, replicate 5); 90.96 at GB1a/2 receptors [6] (10 µM peptide, replicate 6). Further, on GB1a/2 receptors [6] (1 or 10 μM peptide + 10 mM GABA), the “FRET in the presence of 10 mM GABA (in words)” value is reported as “no significant differences in FRET”. At GB1a/2 receptors [6] (1 or 10 μM peptide without GABA), the “FRET, basal, peptide alone (in words)” value is listed as “no significant changes in FRET”. Also, at GB1a/2 receptors [7], the “intracellular Ca^2+ mobilization (in words)” value is “did not increase intracellular Ca^2+”.

Turning to `C[C@H](NC[C@H](O)CP(=O)(O)CC1CCCCC1)c1ccc(Cl)c(Cl)c1` [CGP54626], the “block of receptor activity (in words)” value at GB1a/2 receptors [8] was “blocked constitutive and GABA-induced receptor activity”. Besides, the “luminescence change by receptor ligand (in words)” value at GB1a/2 receptors [5] (GABA 10 μM or CGP54626 10 μM, forskolin) is reported as “decreased luminescence below baseline”. Besides, the “BRET change by receptor ligand (in words)” value at GB1a/2 receptors [9] was “increased BRET above baseline”.

Take `N[C@H](C(=O)O)c1cc(O)cc(O)c1` [DHPG]: in the assay on mGlu5 receptors, the “intracellular Ca^2+ mobilization (in words)” value is recorded as “concentration-dependent increase in intracellular Ca^2+”.
